Experimental data as given in US4100291A, “Novel 1,4-benzodioxanes” (Roussel Uclaf, priority 1976, dated 1978).
Structures can show the parent of a compound that is named as a salt.

Columns and labels:
[1] = tested on: arterial pressure measured at the rat's tail; assay: Antihypertensive activity in spontaneous hypertensive rats, oral (Table III); type: in vivo, spontaneous hypertendus male rats of the Okamoto strain
Method: The antihypertensive activity was determined on spontaneous hypertendus male rats of the Okamoto strain 8 weeks old and the test products were orally administered daily for 9 days. The arterial pressure was measured at the rat's tail by means of a pneumatic collar connected to an electronic transducer of pressure.

[2] = tested on: carotidine arterial pressure; assay: Hypotensive activity in anesthetized rats, intravenous (Table II); type: in vivo, male rats of the Sprague-Dawley SPF strain; conditions: for % Variation in pressure: compared to initial carotid arterial pressure; for Duration of Activity: time for pressure to return to initial value
Method: The hypotensive activity was determined on male rats of the Sprague-Dawley SPF strain weighing about 300 g which had been anestesized with nembutal (50 mg/kg intraveinously). The product was administered intraveinously by the jugular vein and the carotidine arterial pressure was measured before and after the administration of the test product. Table II reports the variations expressed in percent of arterial pressure after administration of the test product as compared to the initial arterial pressure as well as the time necessary for the pressure to return to the initial value.

[3] = Acute toxicity in mice, intraperitoneal (Table I); conditions: mouse, in vivo, ip, suspension in carboxymethylcellulose, observed one week
From the text: The results are in Table I.

[4] = daily dose 50 mg/kg oral, 1st Day, 1 hr after 1st ad.
[5] = daily dose 50 mg/kg oral, 1st Day, 4 hr. after

OC(CN1CCC(c2c[nH]c3ccccc23)CC1)C1COc2ccccc2O1 (racemic) [Example 1, (d,l) erythro α-(2,3-dihydro-1,4-benzodioxin-2-yl)-4-([1H]-indol-3-yl)-1-piperidine-ethanol hydrochloride]
% Pressure variation ([1]; daily dose 50 mg/kg oral for 9 days, 10th Day, 24 hr. after 1st ad. (so in the source)): -15%
% Pressure variation [1, 4]: -11%
% Pressure variation [1, 5]: -12%
% Variation in pressure ([2]; 0.1 mg/kg): -10%
Duration of Activity ([2]; 0.1 mg/kg): 30 min
% Variation in pressure ([2]; 1 mg/kg): -25%
Duration of Activity ([2]; 1 mg/kg): 45 min
LD50 at 168 h [3]: ~100 mg/kg

COc1ccc2[nH]cc(C3CCN(CC(O)C4COc5ccccc5O4)CC3)c2c1 (single isomer, unassigned) [Example 2 isomer A, isomer A of (dl) α-(2,3-dihydro-1,4-benzodioxin-2-yl)-4-(5-methoxy-[1H]-indol-3-yl)-1-piperidine-ethanol]
% Variation in pressure ([2]; 1 mg/kg, listed as 2 isomer A): -14%
Duration of Activity ([2]; 1 mg/kg): 60 min
LD50 at 168 h [3]: ~500 mg/kg

COc1ccc2[nH]cc(C3CCN(CC(O)C4COc5ccccc5O4)CC3)c2c1 (single isomer, unassigned) [Example 2 isomer B, isomer B of (dl) α-(2,3-dihydro-1,4-benzodioxin-2-yl)-4-(5-methoxy-[1H]-indol-3-yl)-1-piperidine-ethanol]
% Variation in pressure ([2]; 1 mg/kg, listed as 2 isomer B): -20%
Duration of Activity ([2]; 1 mg/kg): 60 min

COc1ccc2c(C3CCN(CC(O)C4COc5ccccc5O4)CC3)c(C)[nH]c2c1.Cl (stereo not drawn) [Example 3, α-(2,3-dihydro-1,4-benzodioxin-2-yl)-4-(6-methoxy-2-methyl-[1H]-indol-3-yl)-1-piperidine-ethanol hydrochloride]
% Pressure variation [1, 4]: -26%
% Pressure variation [1, 5]: -27%
Duration of Activity ([2]; 1 mg/kg): 60 min
% Variation in pressure ([2]; 10 mg/kg): -25%
Duration of Activity ([2]; 10 mg/kg): 60 min

OC(CN1CC=C(c2c[nH]c3ccccc23)CC1)C1COc2ccccc2O1 (stereo not drawn) [Example 4, α-(2,3-dihydro-1,4-benzodioxin-2-yl)-4-([1H]-indol-3-yl)-1,2,3,6-tetrahydro-1-pyridine-ethanol]
% Pressure variation [1, 4]: -10%
% Pressure variation [1, 5]: -18%

Cn1cc(C2CCN(CC(O)C3COc4ccccc4O3)CC2)c2ccccc21 (stereo not drawn) [Example 5, α-(2,3-dihydro-1,4-benzodioxin-2-yl)-4-(1-methyl-[1H]-indol-3-yl)-1-piperidine-ethanol]
% Variation in pressure ([2]; 1 mg/kg): -10%
Duration of Activity ([2]; 1 mg/kg): 30 min
LD50 at 168 h [3]: ~250 mg/kg
